Experimental data published in patent publication US8791267B2, “Biaryl PDE4 inhibitors for treating inflammatory, cardiovascular and CNS disorders” (Decode Genetics EHF, priority 2007, dated 2014).
Where a name gives a salt, the structure may show the parent alone. Read-outs that look alike come from different tables or passages of the source.

How the values were obtained:
PDE4 = PDE4 (Homo sapiens, UniProt Q08499); experiment: In-vitro assay for PDE4 enzymes, real-time enzyme-coupled spectrophotometric assay (Table 9); assay type: biochemical
Chain of PDE4 (Q08499 whole entry): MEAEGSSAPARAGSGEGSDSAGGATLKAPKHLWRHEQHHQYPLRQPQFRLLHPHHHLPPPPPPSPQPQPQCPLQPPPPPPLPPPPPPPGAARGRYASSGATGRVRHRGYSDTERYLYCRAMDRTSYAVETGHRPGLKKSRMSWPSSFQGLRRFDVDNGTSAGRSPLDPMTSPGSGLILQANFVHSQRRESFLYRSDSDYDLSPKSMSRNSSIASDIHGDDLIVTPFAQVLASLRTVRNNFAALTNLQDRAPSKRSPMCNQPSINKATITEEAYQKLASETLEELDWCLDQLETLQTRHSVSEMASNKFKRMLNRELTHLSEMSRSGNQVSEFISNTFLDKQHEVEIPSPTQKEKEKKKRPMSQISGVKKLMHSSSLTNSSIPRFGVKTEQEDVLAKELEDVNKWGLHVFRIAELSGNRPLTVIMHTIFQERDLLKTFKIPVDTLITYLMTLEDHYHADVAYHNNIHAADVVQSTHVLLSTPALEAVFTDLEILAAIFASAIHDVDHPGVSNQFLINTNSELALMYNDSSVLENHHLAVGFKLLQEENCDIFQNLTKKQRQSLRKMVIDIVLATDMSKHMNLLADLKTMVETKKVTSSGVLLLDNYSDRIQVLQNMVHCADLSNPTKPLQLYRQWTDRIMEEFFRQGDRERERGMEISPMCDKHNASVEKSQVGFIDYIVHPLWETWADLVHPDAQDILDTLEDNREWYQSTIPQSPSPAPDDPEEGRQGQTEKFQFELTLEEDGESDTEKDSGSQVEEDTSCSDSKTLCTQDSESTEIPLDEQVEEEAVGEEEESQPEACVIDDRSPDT

PDE4B = PDE4B (Homo sapiens, UniProt Q07343); experiment: In-vitro assay for PDE4 enzymes, real-time enzyme-coupled spectrophotometric assay, PDE4B Activity (Table 10); assay type: biochemical
Chain of PDE4B (Q07343 whole entry): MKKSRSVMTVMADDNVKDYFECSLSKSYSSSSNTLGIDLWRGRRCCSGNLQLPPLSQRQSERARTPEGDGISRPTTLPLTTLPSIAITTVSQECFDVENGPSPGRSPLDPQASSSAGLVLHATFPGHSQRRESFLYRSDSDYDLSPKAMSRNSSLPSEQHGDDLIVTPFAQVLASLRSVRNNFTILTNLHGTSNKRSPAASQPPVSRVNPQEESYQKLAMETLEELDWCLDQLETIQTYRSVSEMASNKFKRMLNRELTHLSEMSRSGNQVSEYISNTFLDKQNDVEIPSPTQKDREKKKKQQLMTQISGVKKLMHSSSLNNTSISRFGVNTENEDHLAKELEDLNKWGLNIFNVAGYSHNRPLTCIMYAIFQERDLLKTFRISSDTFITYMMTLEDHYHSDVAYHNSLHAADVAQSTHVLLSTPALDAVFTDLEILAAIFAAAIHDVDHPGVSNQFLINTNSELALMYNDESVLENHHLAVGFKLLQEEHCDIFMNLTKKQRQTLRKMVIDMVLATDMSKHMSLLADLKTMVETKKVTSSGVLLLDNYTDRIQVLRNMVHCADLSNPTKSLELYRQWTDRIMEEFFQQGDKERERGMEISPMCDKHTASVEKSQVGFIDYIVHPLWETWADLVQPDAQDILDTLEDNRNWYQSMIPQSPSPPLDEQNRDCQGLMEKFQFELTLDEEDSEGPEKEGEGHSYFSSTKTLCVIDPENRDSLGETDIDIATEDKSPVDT

[1] = human PDE4D, activity class, Table 9, read-out: hPDE4D
[2] = human PDE4B (hPDE4B), enzyme-coupled spectrophotometric assay, read-out: PDE4B Activity, hPDE4B

Structure (SMILES)	IC50 (PDE4; [1]) [µM]	IC50 (PDE4B; [2]) [µM]	IC50 (PDE4) [µM]	IC50 (PDE4B) [µM]
CCOC(=O)Cn1nc(C)c(Cc2ccc(OC)c(-c3cccc([N+](=O)[O-])c3)c2)c1C [P-087, [4-(6-Methoxy-3′-nitro-biphenyl-3-ylmethyl)-3,5-dimethyl-pyrazol-1-yl]-acetic acid ethyl ester]	< 5	< 5	–	–
COc1ccc(Cc2ccc(NC(N)=O)cc2)c(F)c1-c1cccc(Cl)c1 [P-243, [4-(3′-chloro-2-fluoro-6-methoxy-biphenyl-3-ylmethyl)-phenyl]-urea]	< 5	< 5	–	–
COc1ccc(Cc2ccc(N(C)C(N)=O)cc2)c(F)c1-c1cccc(C(C)=O)c1 [P-338, 1-[4-(3′-Acetyl-2-fluoro-6-methoxy-biphenyl-3-ylmethyl)-phenyl]-1-methyl-urea]	< 5	< 5	–	–
COc1ccc(Cn2c(N)cccc2=O)cc1-c1cccc([N+](=O)[O-])c1 [P-236, 6-Amino-1-(6-methoxy-3′-nitro-biphenyl-3-ylmethyl)-1H-pyridin-2-one]	20 to 40	21 to 40	–	–
COc1ccc(Cc2ccc(F)cc2)c(O)c1-c1cccc([N+](=O)[O-])c1 [P-099, 3-(4-Fluoro-benzyl)-6-methoxy-3′-nitro-biphenyl-2-ol]	< 5	< 5	–	–
COc1ccc(Cn2nnc3ccccc32)cc1-c1cccc([N+](=O)[O-])c1 [P-007, 1-(6-Methoxy-3′-nitro-biphenyl-3-ylmethyl)-1H-benzotriazole]	< 5	5 to 20	–	–
CNc1ccc(Cc2ccc(OC)c(-c3cccc(C(C)=O)c3)c2F)cc1 [P-331, [4-(3′-Acetyl-2-fluoro-6-methoxy-biphenyl-3-ylmethyl)-phenyl]-methyl-amine hydrochloride]	< 5	< 5	–	–
COc1ccc(CN2C(=O)C(=O)c3ccccc32)cc1-c1cccc([N+](=O)[O-])c1 [P-041, 1-(6-Methoxy-3′-nitro-biphenyl-3-ylmethyl)-1H-indole-2,3-dione]	5 to 20	< 5	–	–
COc1ccc(Cc2ccc(Cl)nc2)c(O)c1-c1cccc([N+](=O)[O-])c1 [P-126]	< 5	< 5	–	–
COc1ccc(Cc2ccc(CNC(N)=O)c(F)c2)c(F)c1-c1cccc(C(C)=O)c1 [P-330]	< 5	< 5	–	–
COc1ccc(Cc2ccnn2C)cc1-c1ccc2c(c1)OCO2 [P-075, 5-(3-Benzo[1,3]dioxol-5-yl-4-methoxy-benzyl)-1-methyl-1H-pyrazole]	< 5	< 5	–	–
COc1ccc(Cc2ccc3c(c2)OCO3)c(F)c1-c1cccc(Cl)c1 [P-242]	< 5	< 5	–	–
COc1ccc(Cc2ccc3nc(N)oc3c2)c(F)c1-c1cccc(Cl)c1 [P-285]	< 5	5 to 20	–	–
COc1ccc(Cc2ccc(F)cc2)c(F)c1-c1cccc(Cl)c1 [P-187]	< 5	< 5	–	–
COc1ccc(COC2=CC(=O)CC2)cc1-c1cccc([N+](=O)[O-])c1 [P-092, 3-(6-Methoxy-3′-nitro-biphenyl-3-ylmethoxy)-cyclopent-2-enone]	< 5	< 5	–	–
COc1ccc(Cn2cncc2CO)cc1-c1cccc([N+](=O)[O-])c1 [P-153, [3-(6-Methoxy-3′-nitro-biphenyl-3-ylmethyl)-3H-imidazol-4-yl]-methanol]	< 5	5 to 20	–	–
COc1ccc(Cc2ccc(N)cc2)c(F)c1-c1cccc([N+](=O)[O-])c1 [P-136]	< 5	< 5	–	–

Structure (SMILES)	IC50 (PDE4; [1]) [µM]	IC50 (PDE4B; [2]) [µM]	IC50 (PDE4) [µM]	IC50 (PDE4B) [µM]
COc1ccc(Cc2ccc(N(C)C)nc2)c(F)c1-c1cccc(C(C)=O)c1 [P-332, 1-[3′-(6-Dimethylamino-pyridin-3-ylmethyl)-2′-fluoro-6′-methoxy-biphenyl-3-yl]-ethanone]	< 5	< 5	–	–
CNc1ccc(Cc2ccc(OC)c(-c3cccc(Cl)c3)c2F)cc1 [P-311, [4-(3′-Chloro-2-fluoro-6-methoxy-biphenyl-3-ylmethyl)-phenyl]-methyl-amine]	< 5	< 5	–	–
COc1ccc(Cn2cnc3ccccc32)cc1-c1ccc2nonc2c1 [P-014, 5-(5-Benzoimidazol-1-ylmethyl-2-methoxy-phenyl)-benzo[1,2,5]oxadiazole]	5 to 20	5 to 20	–	–
COc1ccc(Cc2ccc(NC(C)=O)cc2)c(F)c1-c1cccc(Cl)c1 [P-228]	< 5	< 5	–	–
CCOc1ccc(Cc2ccc(NC(N)=O)nc2)c(F)c1-c1cccc(Cl)c1 [P-279]	< 5	< 5	–	–
COc1ccc(Cc2ccncc2)cc1-c1cccc([N+](=O)[O-])c1 [P-008]	< 5	< 5	–	–
COc1ccc(Cc2ccc(C#N)c(O)c2)c(F)c1-c1cccc(Cl)c1 [P-295]	< 5	21 to 40	–	–
COc1ccc(C(O)c2ccnn2C)cc1-c1ccc2c(c1)OCO2 (stereo not shown) [P-073, (3-Benzo[1,3]dioxol-5-yl-4-methoxy-phenyl)-(2-methyl-2H-pyrazol-3-yl)-methanol]	< 5	21 to 40	–	–
COc1ccc(CN2C(=O)c3ccncc3C2=O)cc1-c1cccc([N+](=O)[O-])c1 [P-043, 2-(6-Methoxy-3′-nitro-biphenyl-3-ylmethyl)-pyrrolo[3,4-c]pyridine-1,3-dione]	< 5	5 to 20	–	–
COc1ccc(Cn2cncn2)cc1-c1cccc(OC(F)(F)F)c1 [P-084, 1-(6-Methoxy-3′-trifluoromethoxy-biphenyl-3-ylmethyl)-1H-[1,2,4]triazole]	< 5	5 to 20	–	–
COc1ccc(Cn2cc(NC(C)=O)ccc2=O)cc1-c1cccc([N+](=O)[O-])c1 [P-211, N-[1-(6-Methoxy-3′-nitro-biphenyl-3-ylmethyl)-6-oxo-1,6-dihydro-pyridin-3-yl]-acetamide]	5 to 20	5 to 20	–	–
COc1ccc(Cc2ccc(NC(N)=O)c(O)c2)c(F)c1-c1cccc(Cl)c1 [P-262]	< 5	< 5	–	–
COc1ccc(Cc2ccc(-n3cccn3)cc2)c(O)c1-c1cccc([N+](=O)[O-])c1 [P-173, 6-Methoxy-3′-nitro-3-(4-pyrazol-1-yl-benzyl)-biphenyl-2-ol]	< 5	< 5	–	–
COc1ccc(Cc2ccc(CNC(=O)Oc3ccccc3)nc2)cc1-c1cccc(Cl)c1 [P-592, [5-(3′-Chloro-6-methoxy-biphenyl-3-ylmethyl)-pyridin-2-ylmethyl]-carbamic acid phenyl ester]	–	–	< 5	< 5
COc1ccc(Cc2ccccc2CN)cc1-c1cccc([N+](=O)[O-])c1 [P-133]	5 to 20	5 to 20	–	–
COc1ccc(CN2CCCCS2(=O)=O)cc1-c1cccc([N+](=O)[O-])c1 [P-035, 2-(6-Methoxy-3′-nitro-biphenyl-3-ylmethyl)-[1,2]thiazinane 1,1-dioxide]	< 5	< 5	–	–

The next lines start with results.

IC50 (PDE4; [1]) [µM]	IC50 (PDE4B; [2]) [µM]	Structure (SMILES)	IC50 (PDE4) [µM]	IC50 (PDE4B) [µM]
< 5	< 5	CCOC(=O)Nc1ccc(Cc2ccc(OC)c(-c3cccc(Cl)c3)c2F)cn1 [P-357]	–	–
< 5	< 5	CNC(=O)NCc1ccc(Cc2ccc(OC(F)F)c(-c3cccc(Cl)c3)c2)cn1 [P-598, 1-[5-(3′-Chloro-6-difluoromethoxy-biphenyl-3-ylmethyl)-pyridin-2-ylmethyl]-3-methyl-urea hydrochloride]	–	–
< 5	< 5	CCNC(=O)N1CCC[C@@H]1COc1ccc(Cc2ccc(OC)c(-c3cccc(Cl)c3)c2F)cn1 [P-533, (R)-2-[5-(3′-Chloro-2-fluoro-6-methoxy-biphenyl-3-ylmethyl)-pyridin-2-yloxymethyl]-pyrrolidine-1-carboxylic acid ethylamide]	–	–
< 5	< 5	COc1ccc(Cc2ccc(-n3ccnc3)nc2)c(F)c1-c1cccc(Cl)c1 [P-573, 5-(3′-chloro-2-fluoro-6-methoxy-biphenyl-3-ylmethyl)-2-imidazol-1-yl-pyridine]	–	–
< 5	5 to 20	COc1ccc(CN2CCNC(=O)C2)c(F)c1-c1cccc(Cl)c1 [P-623]	–	–
< 5	< 5	COc1ccc(Cc2ccc(NCC(N)=O)nc2)c(F)c1-c1cccc(Cl)c1 [P-471]	–	–
< 5	5 to 20	COc1ccc(Cn2cc(-c3ccccn3)cn2)c(F)c1-c1cccc(Cl)c1 [P-527, 2-[1-(3′-Chloro-2-fluoro-6-methoxy-biphenyl-3-ylmethyl)-1H-pyrazol-4-yl]-pyridine]	–	–
< 5	< 5	COc1ccc(Cc2cnc(N(C)CCO)nc2)c(F)c1-c1cccc(Cl)c1 [P-458, 2-{[5-(3′-Chloro-2-fluoro-6-methoxy-biphenyl-3-ylmethyl)-pyrimidin-2-yl]-methyl-amino}-ethanol]	–	–
< 5	< 5	COc1ccc(COc2ccc(N)cc2)c(F)c1-c1cccc(Cl)c1 [P-576]	–	–
< 5	< 5	COc1ccc(Cc2cnc(N3CC(O)C3)nc2)c(F)c1-c1cccc(Cl)c1 [P-393, 1-[5-(3′-Chloro-2-fluoro-6-methoxy-biphenyl-3-ylmethyl)-pyrimidin-2-yl]-azetidin-3-ol]	–	–
< 5	< 5	COc1ccc(Cn2cc(-c3cnccn3)cn2)c(F)c1-c1cccc(Cl)c1 [P-545, 2-[1-(3′-Chloro-2-fluoro-6-methoxy-biphenyl-3-ylmethyl)-1H-pyrazol-4-yl]-pyrazine]	–	–
5 to 20	21 to 40	CN1CC[C@@H](Oc2ccc(Cc3ccc(NC(N)=O)cc3)cc2-c2cccc(Cl)c2)C1 [P-565, {4-[3′-Chloro-6-((R)-1-methyl-pyrrolidin-3-yloxy)-biphenyl-3-ylmethyl]-phenyl}-urea]	–	–
< 5	< 5	CC(C)(O)c1ccc(Cc2ccc(OC(F)F)c(-c3cccc(Cl)c3)c2)cn1 [P-610, 2-[5-(3′-Chloro-6-difluoromethoxy-biphenyl-3-ylmethyl)-pyridin-2-yl]-propan-2-ol hydrochloride]	–	–
< 5	< 5	COc1ccc(Cc2ccc(N3CCNC3=O)nc2)c(F)c1-c1cccc(Cl)c1 [P-388, 1-[5-(3′-Chloro-2-fluoro-6-methoxy-biphenyl-3-ylmethyl)-pyridin-2-yl]-imidazolidin-2-one]	–	–
